Molecules are shown by their SMILES.

One experiment deals with phosphorylated active hERK2 enzyme (Homo sapiens (Human), UniProt P28482).
Sequence of phosphorylated active hERK2 enzyme (P28482 whole entry): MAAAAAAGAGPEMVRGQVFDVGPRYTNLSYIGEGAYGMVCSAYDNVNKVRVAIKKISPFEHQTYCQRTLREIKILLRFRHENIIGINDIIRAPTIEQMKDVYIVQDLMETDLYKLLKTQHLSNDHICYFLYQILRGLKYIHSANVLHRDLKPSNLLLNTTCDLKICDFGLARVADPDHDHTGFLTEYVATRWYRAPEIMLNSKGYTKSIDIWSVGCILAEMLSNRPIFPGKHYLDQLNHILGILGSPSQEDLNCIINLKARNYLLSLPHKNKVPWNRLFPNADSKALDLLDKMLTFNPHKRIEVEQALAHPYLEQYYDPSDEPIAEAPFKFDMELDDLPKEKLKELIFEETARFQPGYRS
Settings: not given
Consider `Cc1cc(-n2ncc3cc(NC(=O)N[C@H]4CCCC[C@H]4c4ccc(F)cc4)ncc32)ccn1` (racemic) [Example 174, Racemic cis 1-[(1S,2S) and (1R,2R)-2-(4-fluorophenyl)cyclohexyl]-3-[1-(2-methylpyridin-4-yl)-1H-pyrazolo[3,4-c]pyridin-5-yl]urea], for which the midpoint of inhibition, the IC50, lay at 19.1 nM. `Cc1cc(-n2ncc3cc(NC(=O)N[C@H]4CN(C)C[C@@H]4c4cccc(F)c4)ncc32)ccn1` [Example 19, 1-[(3R,4S)-4-(3-fluorophenyl)-1-methylpyrrolidin-3-yl]-3-[1-(2-methylpyridin-4-yl)-1H-pyrazolo[3,4-c]pyridin-5-yl)urea] came in with an IC50 of 3.07 nM.

The same experiment, now with this note: read-out: ERK2 IC50; IMAP-FP assay; 0.5 nM hERK2, 30 μM ATP; 10 point titration, 3 μM starting concentration.
For `Cc1cc(-n2ncc3cc(NC(=O)NCC(F)(F)c4ccccc4)ncc32)ccn1` [Example 61, 1-(2,2-difluoro-2-phenylethyl)-3-[1-(2-methylpyridin-4-yl)-1H-pyrazolo[3,4-c]pyridin-5-yl]urea], the 50% inhibitory concentration (IC50) was 193 nM. Take `Cc1cc(-n2ncc3cc(NC(=O)NCC4(F)CNC4)ncc32)ccn1` [Example 287, 1-[(3-fluoroazetidin-3-yl)methyl]-3-[1-(2-methylpyridin-4-yl)-1H-pyrazolo[3,4-c]pyridin-5-yl]urea]: the 50% inhibitory concentration (IC50) is 43.2 nM. As to `COCCOC[C@@H](NC(=O)Nc1cc2cnn(-c3ccnc(C)c3)c2cn1)c1ccccc1` [Example 136, 1-[(1S)-2-(2-methoxyethoxy)-1-phenylethyl]-3-[1-(2-methylpyridin-4-yl)-1H-pyrazolo[3,4-c]pyridin-5-yl]urea], the IC50 worked out at 4.39 nM. With `Cc1cc(-n2ncc3cc(NC(=O)NCC4(c5ccccc5)CCOC4)ncc32)ccn1` (centres unmarked) [Example 69, 1-[1-(2-methylpyridin-4-yl)-1H-pyrazolo[3,4-c]pyridin-5-yl]-3-[(3-phenyltetrahydrofuran-3-yl)methyl]urea], the concentration for half-maximal inhibition (IC50) was determined as 17.7 nM.

`Cc1cc(-n2ncc3cc(NC(=O)N[C@H](C)c4cccc(Cl)c4)ncc32)ccn1` [Example 43, 1-[(1R)-1-(3-chlorophenyl)ethyl]-3-[1-(2-methylpyridin-4-yl)-1H-pyrazolo[3,4-c]pyridin-5-yl]urea]: the half-inhibitory concentration (IC50) amounted to 0.952 nM. As for `C[C@@H](NC(=O)Nc1cc2cnn(-c3ccc(F)cc3)c2c(CN2CCOCC2)n1)c1ccccc1` [Example 242, 1-[1-(4-fluorophenyl)-7-(morpholin-4-ylmethyl)-1H-pyrazolo[3,4-c]pyridin-5-yl]-3-[(1R)-1-phenylethyl]urea], the IC50 was determined as 2240 nM. Still for that read-out and setting: next, `Cc1cc(-n2ncc3cc(NC(=O)NCc4cnn(-c5ccc(F)cc5)c4)ncc32)ccn1` [Example 60, 1-{[1-(4-fluorophenyl)-1H-pyrazol-4-yl]methyl}-3-[1-(2-methylpyridin-4-yl)-1H-pyrazolo[3,4-c]pyridin-5-yl]urea]: 1630 nM. Turning to `CCN(CC)C(=O)[C@@H](NC(=O)Nc1cc2cnn(-c3ccnc(C)c3)c2cn1)c1ccccc1` [Example 144, (2S)-N,N-diethyl-2-({[1-(2-methylpyridin-4-yl)-1H-pyrazolo[3,4-c]pyridin-5-yl]carbamoyl}amino)-2-phenylethanamide], the half-inhibitory concentration (IC50) turned out to be 89.3 nM. Regarding `Cc1cc(-n2ncc3cc(NC(=O)N[C@H]4CCCC[C@@H]4Cc4ccccc4)ncc32)ccn1` [Example 163, 1-[(1S,2R)-2-benzylcyclohexyl]-3-[1-(2-methylpyridin-4-yl)-1H-pyrazolo[3,4-c]pyridin-5-yl)urea], the concentration for half-maximal inhibition (IC50) was 39.4 nM. For the compound `Cc1cc(-n2ncc3cc(NC(=O)N[C@@H]4CN(C)C[C@H]4c4nc(C)cs4)ncc32)ccn1` [Example 126, 1-[(3S,4R)-1-methyl-4-(4-methyl-1,3-thiazol-2-yl)pyrrolidin-3-yl]-3-[1-(2-methylpyridin-4-yl)-1H-pyrazolo[3,4-c]pyridin-5-yl)urea], the IC50 turned out to be 15.8 nM. As for `Cn1cc(-n2ncc3cc(NC(=O)NCc4ccc(F)c(Cl)c4)ncc32)cn1` [Example 218, 1-(3-chloro-4-fluorobenzyl)-3-[1-(1-methyl-1H-pyrazol-4-yl)-1H-pyrazolo[3,4-c]pyridin-5-yl]urea], the IC50 was found to be 20.8 nM.

On to `Cc1cc(-n2ncc3cc(NC(=O)N[C@H]4CCC[C@@H]4OCc4ccccc4)ncc32)ccn1` [Example 154, 1-[(1S,2S)-2-(benzyloxy)cyclopentyl]-3-[1-(2-methylpyridin-4-yl)-1H-pyrazolo[3,4-c]pyridin-5-yl]urea], for which the IC50 stood at 7.51 nM.

For the compound `Cc1cc(-n2ncc3cc(NC(=O)N[C@@H]4CN(C)C[C@H]4c4ccccc4C(F)(F)F)ncc32)ccn1` [Example 192, 1-[1-(2-methylpyridin-4-yl)-1H-pyrazolo[3,4-c]pyridin-5-yl]-3-{(3S,4R)-1-methyl-4-[2-(trifluoromethyl)-phenyl]pyrrolidin-3-yl}urea], the concentration for half-maximal inhibition (IC50) is 235 nM. Take `Cc1cc(-n2ncc3cc(NC(=O)NCC4CN(c5ccccc5)CCO4)ncc32)ccn1` (centres unmarked) [Example 79, 1-[1-(2-methylpyridin-4-yl)-1H-pyrazolo[3,4-c]pyridin-5-yl]-3-[(4-phenylmorpholin-2-yl)methyl]urea]: the IC50 worked out at 26.5 nM. As to `Cc1cc(-n2ncc3cc(NC(=O)N[C@@H](C)c4ccccn4)ncc32)ccn1` [Example 203, 1-[1-(2-methylpyridin-4-yl)-1H-pyrazolo[3,4-c]pyridin-5-yl]-3-[(1S)-1-pyridin-2-ylethyl]urea], the IC50 was 1180 nM. For `Cc1cc(-n2ncc3cc(NC(=O)NC[C@H]4CCN(C)C4)ncc32)ccn1` [Example 289, 1-[1-(2-methylpyridin-4-yl)-1H-pyrazolo[3,4-c]pyridin-5-yl]-3-{[(3R)-1-methylpyrrolidin-3-yl]methyl}urea], the concentration for half-maximal inhibition (IC50) is 36.6 nM. Regarding `Cc1cc(-n2ncc3cc(NC(=O)N[C@H]4CN(C(C)C)C[C@@H]4c4ccccc4)ncc32)ccn1` [Example 198, 1-[(3R,4S)-1-(1-methylethyl)-4-phenylpyrrolidin-3-yl]-3-[1-(2-methylpyridin-4-yl)-1H-pyrazolo[3,4-c]pyridin-5-yl]urea], the 50% inhibitory concentration (IC50) was 2.64 nM. `O=C(NCc1ccc(F)cc1)Nc1cc2cnn(-c3ccc(F)cc3)c2cn1` [Example 1, 1-(4-fluorobenzyl)-3-(1-(4-fluorophenyl)-1H-pyrazolo[3,4-c]pyridin-5-yl)urea]: the IC50 was 26 nM.

As to `Cc1cc(-n2ncc3cc(NC(=O)N[C@H]4CN(C)C[C@@H]4CCc4ccccc4)ncc32)ccn1` [Example 185, 1-[(3R,4S)-1-methyl-4-(2-phenylethyl)pyrrolidin-3-yl]-3-[1-(2-methylpyridin-4-yl)-1H-pyrazolo[3,4-c]pyridin-5-yl]urea], the half-inhibitory concentration (IC50) is 0.182 nM. Regarding `Cc1cc(-n2ncc3cc(NC(=O)N[C@H]4CN(C)C[C@@H]4c4ccccc4C)ncc32)ccn1` (single isomer, unassigned) [Example 36, 1-[(3R,4S) or (3S, 4R)-1-methyl-4-(2-methylphenyl)pyrrolidin-3-yl]-3-[1-(2-methylpyridin-4-yl)-1H-pyrazolo[3,4-c]pyridin-5-yl)urea], the IC50 stood at 0.83 nM. Same read-out and setting: in the case of `Cc1cc(-n2ncc3cc(NC(=O)NC(C)(C)c4ccccc4)ncc32)ccn1` [Example 122, 1-(1-methyl-1-phenylethyl)-3-[1-(2-methylpyridin-4-yl)-1H-pyrazolo[3,4-c]pyridin-5-yl]urea] it was 56.8 nM. For the compound `Cn1cc2cc(-n3ncc4cc(NC(=O)NC(c5ccccc5)c5cnco5)ncc43)ccc2n1` (centres unmarked) [Example 35, 1-[1-(2-methyl-2H-indazol-5-yl)-1H-pyrazolo[3,4-c]pyridin-5-yl]-3-[1,3 oxazol-5-yl(phenyl)methyl]urea], the IC50 turned out to be 1.56 nM. Regarding `Cc1cc(-n2ncc3cc(NC(=O)NCCc4c(C)noc4C)ncc32)ccn1` [Example 117, 1-[2-(3,5-dimethylisoxazol-4-yl)ethyl]-3-[1-(2-methylpyridin-4-yl)-1H-pyrazolo[3,4-c]pyridin-5-yl)urea], the IC50 was found to be 16.4 nM.

`Cc1cc(-n2ncc3cc(NC(=O)N[C@H]4CNC[C@@H]4Oc4ccccc4)ncc32)ccn1` [Example 157, 1-[1-(2-methylpyridin-4-yl)-1H-pyrazolo[3,4-c]pyridin-5-yl]-3-[(3S,4S)-4-phenoxypyrrolidin-3-yl)urea]: the IC50 is 35.3 nM. Still for that read-out and setting: next, `Cc1cc(-n2ncc3cc(NC(=O)NCC(c4ccccc4)N4CCC(F)(F)CC4)ncc32)ccn1` (centres unmarked) [Example 55, 1-[2-(4,4-difluoropiperidin-1-yl)-2-phenylethyl]-3-[1-(2-methylpyridin-4-yl)-1H-pyrazolo[3,4-c]pyridin-5-yl]urea]: 85.1 nM; `Cc1cc(-n2ncc3cc(NC(=O)NC4CCN(Cc5cccnc5)C4)ncc32)ccn1` (centres unmarked) [Example 270, 1-[1-(2-methylpyridin-4-yl)-1H-pyrazolo[3,4-c]pyridin-5-yl]-3-[1-(pyridin-3-ylmethyl)-pyrrolidin-3-yl]urea]: 45.3 nM; `Cc1cc(-n2ncc3cc(NC(=O)N[C@H]4CN(C)C[C@@H]4Oc4ccccc4)ncc32)ccn1` [Example 158, 1-[(3S,4S)-1-methyl-4-phenoxypyrrolidin-3-yl]-3-[1-(2-methylpyridin-4-yl)-1H-pyrazolo[3,4-c]pyridin-5-yl]urea]: 20.5 nM.

In the case of `Cc1cc(-n2ncc3cc(NC(=O)N[C@H]4CNC[C@@H]4Oc4cncc(F)c4)ncc32)ccn1` [Example 275, 1-{(3S,4S)-4-[(5-fluoropyridin-3-yl)oxy]pyrrolidin-3-yl}-3-[1-(2-methylpyridin-4-yl)-1H-pyrazolo[3,4-c]pyridin-5-yl]urea], the IC50 amounted to 327 nM. Same read-out and setting: in the case of `CO[C@H]1CN(Cc2c(F)cccc2F)C[C@@H]1NC(=O)Nc1cc2cnn(-c3ccnc(C)c3)c2cn1` (single isomer, unassigned) [Example 274, 1-[(3R,4R) or (3S, 4S)-1-(2,6-difluorobenzyl)-4-methoxypyrrolidin-3-yl]-3-[1-(2-methylpyridin-4-yl)-1H-pyrazolo[3,4-c]pyridin-5-yl]urea] it was 3.54 nM; in that of `Cc1cc(-n2ncc3cc(NC(=O)N[C@H](C)c4ccccc4)nc(C)c32)ccn1` [Example 251, 1-[7-methyl-1-(2-methylpyridin-4-yl)-1H-pyrazolo[3,4-c]pyridin-5-yl]-3-[(1R)-1-phenylethyl]urea], 2.81 nM.

The values above are taken from patent US9884048B2, “ERK inhibitors” (Merck Sharp & Dohme Corp., priority 2014, dated 2018).
